From publication PMC4613240, “A Series of New Ligustrazine-Triterpenes Derivatives as Anti-Tumor Agents: Design, Synthesis, and Biological Evaluation” (International Journal of Molecular Sciences, 2015)

Columns and labels:
[1] = system: MCF-7 (human breast cancer); assay: MTT cytotoxicity assay, MCF-7; assay type: cell-based; settings: maximal tested concentration 20.0 μM
Method: (§1) The cytotoxicity of ligustrazine-triterpenes derivatives was evaluated on five tumor cell lines (Bel-7402, HepG2, HT-29, Hela, and MCF-7) using the standard MTT assay. In the study, the antineoplastic drug cisplatin (DDP) was selected as the positive control. The MDCK cell line was used to test the toxicity of the ligustrazine-triterpenes derivatives and DDP.
(§2) The cell lines Bel-7402 (human hepatocellular carcinoma), HepG2 (human hepatocellular carcinoma), HT-29 (human colon carcinoma), Hela (human cervical cancer), MCF-7 (human breast cancer) were included in this study. All these cell lines were provided by the Chinese Academy of Medical Sciences & Peking Union Medical College. Cultures were maintained as monolayers in RPMI 1640 supplemented with 10% (v/v) heat inactivated fetal bovine serum and 1% (v/v) enicillin/streptomycin (Thermo Technologies, New York, NY, USA) at 37 °C in a humidified atmosphere with 5% CO2. The ligustrazine derivatives under study were dissolved in DMSO (Sigma, St. Louis, MO, USA) and added at required concentrations to the cell culture. Cells incubated without the preparations served as the control.
(§3) The cytotoxicity of the compounds was evaluated on five cancer cell lines (Bel-7402, HepG2, HT-29, Hela, MCF-7) by the standard MTT assay. In short, exponentially growing cells were seeded into 96-well plates at a density 10^4 cells/mL. The plates were incubated at 37 °C in a humidified 5% CO2 atmosphere. Cells were allowed to adhere to the surface for 24 h and then treated with serial dilutions of the compounds for 72 h. Later, aliquots of [3-(4,5-dimethylthiazol-2-yl)-2,5-diphenyltetrazolium bromide] (MTT) solution (20 μL, 5 mg/mL) were added to each well and the incubation was continued for an additional 4 h. Then the supernatant medium was thrown away. The dark blue formazan crystals formed within the healthy cells were solubilized with DMSO (150 μL) and the absorbance was measured in a plate reader (BIORAD 550 spectrophotometer, Bio-rad Life Science Development Ltd., Beijing, China) at 490 nm. Wells containing no drugs were used as control group. The IC50 values were defined as the concentration of compounds that produced a 50% reduction of surviving cells and calculated using Logit-method. Tumor cell growth inhibitory rate was calculated in the following Equation (1): % inhibition = (1 − Sample group OD/Control group OD) × 100% (1)

[2] = system: Hela (human cervical cancer); assay: MTT cytotoxicity assay, Hela; assay type: cell-based; settings: 72 h, maximal tested concentration 20.0 μM
Method: as §1, §2, §3

[3] = system: HT-29 (human colon carcinoma); assay: MTT cytotoxicity assay, HT-29; assay type: cell-based; settings: maximal tested concentration 20.0 μM
Method: as §1, §2, §3

[4] = system: Bel-7402 (human hepatocellular carcinoma); assay: MTT cytotoxicity assay, Bel-7402; assay type: cell-based; settings: maximal tested concentration 20.0 μM
Method: as §1, §2, §3

[5] = system: HepG2 (human hepatocellular carcinoma); assay: MTT cytotoxicity assay, HepG2; assay type: cell-based; settings: 72 h, maximal tested concentration 20.0 μM
Method: as §1, §2, §3

[6] = system: Madin-Darby canine kidney cell line (MDCK); assay: MTT cytotoxicity (nephrotoxicity/selectivity) assay, MDCK; assay type: cell-based; settings: maximal tested concentration 20.0 μM, toxicity to MDCK kidney cells

Row | SMILES | IC50 ([1]; Homo sapiens, MCF7, 72 h) | IC50 ([2]; Homo sapiens, HeLa) | IC50 ([3]; Homo sapiens, HT-29, 72 h) | IC50 ([4]; Homo sapiens, Bel-7402, 72 h) | IC50 ([5]; Homo sapiens, HepG2, 72 h) | IC50 ([6]; Canis lupus familiaris) | melting point | IC50 ([1]; 72 h) | IC50 [2] | IC50 ([3]; 72 h) | IC50 [6] | IC50 ([4]; 72 h) | IC50 [5]
1 | C[C@H]1[C@H](C)CC[C@]2(C(=O)O)CC[C@]3(C)C(=CC[C@@H]4[C@@]5(C)CC[C@H](O)C(C)(C)[C@@H]5CC[C@]43C)[C@H]12 [UA, ursolic acid, reference compound] | > 20 µM | > 20 µM | > 20 µM | > 20 µM | > 20 µM | – | – | – | – | – | – | – | –
2 | Cc1nc(C)c(COC(=O)[C@]23CCC(C)(C)CC2C2=CCC4[C@@]5(C)CC[C@H](O)C(C)(C)C5CC[C@@]4(C)[C@]2(C)CC3)nc1C (stereo partly drawn) [Compound 1a, 3β-Hydroxyolea-12-en-28-oic acid-3,5,6-trimethylpyrazin-2-methyl ester] | 15.2 µM | 14.1 µM | 13.2 µM | 10.2 µM | 14.8 µM | > 20 µM | – | – | – | – | – | – | –
3 | Cc1nc(C)c(C(=O)OC2CCC3(C)C(CCC4(C)C3CC=C3C5CC(C)(C)CCC5(C(=O)O)CCC34C)C2(C)C)nc1C (stereo not drawn) [Compound 1d, 3β-Hydroxyolea-(3,5,6-trimethylpyrazin-2-carbonyl)-12-en-28-oic acid] | 5.69 µM | 4.37 µM | 8.43 µM | 9.28 µM | 7.94 µM | 16.4 µM | 289.7 to 290.5 °C | – | – | – | – | – | –
4 | C=C(C)C1CCC2(C(=O)OCc3ccccc3)CCC3(C)C(CCC4C5(C)CCC(OC(=O)c6nc(C)c(C)nc6C)C(C)(C)C5CCC43C)C12 (stereo not drawn) [Compound 4c, 3β-Hydroxy-(3,5,6-trimethylpyrazin-2-carbonyl)-lup-20(29)-ene-28-oic acid-benzyl ester] | > 20 µM | > 20 µM | > 20 µM | > 20 µM | > 20 µM | – | 162.1 to 162.8 °C | – | – | – | – | – | –
5 | Cc1nc(C)c(COC(=O)[C@]23CC[C@@H](C)[C@H](C)C2C2=CCC4[C@@]5(C)CC[C@H](OC(=O)c6nc(C)c(C)nc6C)C(C)(C)C5CC[C@@]4(C)[C@]2(C)CC3)nc1C (stereo partly drawn) [Compound 2b, 3β-Hydroxyurs-(3,5,6-trimethylpyrazin-2-carbonyl)-12-en-28-oic acid-3,5,6-trimethylpyrazin-2-methyl ester] | > 20 µM | > 20 µM | > 20 µM | > 20 µM | > 20 µM | – | 168.2 to 168.9 °C | – | – | – | – | – | –
6 | Cc1nc(C)c(C(=O)OC2CCC3(C)C(CCC4(C)C3CC=C3C5C(C)C(C)CCC5(C(=O)O)CCC34C)C2(C)C)nc1C (stereo not drawn) [Compound 2d, 3β-Hydroxyurs-(3,5,6-trimethylpyrazin-2-carbonyl)-12-en-28-oic acid] | 9.49 µM | 9.66 µM | 9.7 µM | 10.1 µM | > 20 µM | > 20 µM | 305.9 to 306.6 °C | – | – | – | – | – | –
7 | Cc1nc(C)c(COC(=O)[C@]23CC[C@@H](C)[C@H](C)C2C2=CCC4[C@@]5(C)CC[C@H](O)C(C)(C)C5CC[C@@]4(C)[C@]2(C)CC3)nc1C (stereo partly drawn) [Compound 2a, 3β-Hydroxyurs-12-en-28-oic acid-3,5,6-trimethylpyrazin-2-methyl ester] | > 20 µM | 20 µM | 17.6 µM | 8.01 µM | > 20 µM | > 20 µM | 125.9 to 126.7 °C | – | – | – | – | – | –
8 | Cc1nc(C)c(C(=O)OC2CCC3(C)C(CCC4(C)C3CC=C3C5C(C)C(C)CCC5(C(=O)OCc5ccccc5)CCC34C)C2(C)C)nc1C (stereo not drawn) [Compound 2c, 3β-Hydroxyurs-(3,5,6-trimethylpyrazin-2-carbonyl)-12-en-28-oic acid-benzyl ester] | > 20 µM | > 20 µM | > 20 µM | > 20 µM | > 20 µM | – | 218.5 to 219.3 °C | – | – | – | – | – | –
9 | C=C(C)[C@@H]1CC[C@]2(C(=O)O)CC[C@]3(C)[C@H](CC[C@@H]4[C@@]5(C)CC[C@H](O)C(C)(C)[C@@H]5CC[C@]43C)[C@@H]12 [BA, betulinic acid, reference compound] | > 20 µM | > 20 µM | > 20 µM | > 20 µM | > 20 µM | – | – | – | – | – | – | – | –
10 | N.N.[Cl][Pt][Cl] [DDP, cisplatin, reference compound] | – | – | – | – | – | – | – | 5.17 µM | 6.22 µM | 5.28 µM | 14.6 µM | 5.91 µM | 4.57 µM
11 | Cc1nc(C)c(C)nc1C [TMP, ligustrazine] | > 20 µM | > 20 µM | > 20 µM | > 20 µM | > 20 µM | – | – | – | – | – | – | – | –
12 | CC1(C)[C@@H](O)CC[C@]2(C)[C@H]3C(=O)C=C4[C@@H]5C[C@@](C)(C(=O)O)CC[C@]5(C)CC[C@@]4(C)[C@]3(C)CC[C@@H]12 [GA, glycyrrhetic acid, reference compound] | – | – | – | – | – | – | – | > 20 µM | > 20 µM | > 20 µM | – | > 20 µM | > 20 µM
13 | Cc1nc(C)c(C(=O)OC2CCC3(C)C(CCC4(C)C3CC=C3C5CC(C)(C)CCC5(C(=O)OCc5ccccc5)CCC34C)C2(C)C)nc1C (stereo not drawn) [Compound 1c, 3β-Hydroxyolea-(3,5,6-trimethylpyrazin-2-carbonyl)-12-en-28-oic acid-benzyl ester] | > 20 µM | > 20 µM | > 20 µM | > 20 µM | > 20 µM | – | 194.2 to 194.9 °C | – | – | – | – | – | –
14 | Cc1nc(C)c(COC(=O)[C@]23CCC(C)(C)CC2C2=CCC4[C@@]5(C)CC[C@H](OC(=O)c6nc(C)c(C)nc6C)C(C)(C)C5CC[C@@]4(C)[C@]2(C)CC3)nc1C (stereo partly drawn) [Compound 1b, 3β-Hydroxyolea-(3,5,6-trimethylpyrazin-2-carbonyl)-12-en-28-oic acid-3,5,6-trimethylpyrazin-2-methyl ester] | 10.6 µM | > 20 µM | > 20 µM | > 20 µM | 12.1 µM | > 20 µM | 193 to 193.7 °C | – | – | – | – | – | –
15 | Cc1nc(C)c(COC(=O)[C@@]2(C)CC[C@]3(C)CC[C@]4(C)C(=CC(=O)C5[C@@]6(C)CC[C@H](O)C(C)(C)C6CC[C@]54C)C3C2)nc1C (some centres unmarked) [Compound 3a, 3-Hydroxy-11-oxoolean-12-en-30-oic acid-3,5,6-trimethylpyrazin-2-methyl ester] | > 20 µM | 11.2 µM | 19.9 µM | > 20 µM | > 20 µM | > 20 µM | – | – | – | – | – | – | –
16 | CC1(C)CC[C@]2(C(=O)O)CC[C@]3(C)C(=CC[C@@H]4[C@@]5(C)CC[C@H](O)C(C)(C)[C@@H]5CC[C@]43C)[C@@H]2C1 [OA, oleanolic acid, reference compound] | > 20 µM | > 20 µM | > 20 µM | > 20 µM | > 20 µM | – | – | – | – | – | – | – | –
